Non-standard residues stand in square brackets, D forms with d. Residues, ends and D or L forms follow the SMILES beside them.
What was measured:
[1] = tested on: aortic stiffening-induced hypertension rat model; assay: Pressure, pulse wave velocity and peripheral flow measurement in aortic NCR (aortic stiffening-induced hypertension) rats; format: in vivo, Wistar rats
Method: (§1) Twenty seven Wistar rats at age of 17-18 weeks were randomly divided into three groups. Group 1 (n=10) underwent aortic NCR for 12 weeks and was terminated at the end of 12 weeks. Group 2 (n=9) underwent aortic NCR for 12 weeks, then received continuous BQ-123 infusion for 3 weeks. The animals were terminated at the end of 15 weeks. Group 3 (n=8) was used as the sham-operated control for groups 1 and 2. All animal experiments were performed in accordance with national and local ethical guidelines, including the Institute of Laboratory Animal Research guidelines, Public Health Service policy, the Animal Welfare Act, as approved by Institutional Animal Care and Use Committee at California Medical Innovations Institute, San Diego.
Animals were anesthetized with 1-2% isoflurane by air inhalation. A pressure catheter (Mikro-tip SPR-407, Millar Instruments, Houston, Tex.,) was inserted in the aortic arch (proximal site) via the right carotid artery. Heparin (200 U/ml) was used to prevent blood clots in the vessels. Another pressure transducer (Mikro-tip SPR-671) was advanced retrogradely into the abdominal aorta (distal site) via the right femoral artery. The central and peripheral aortic blood pressure waveforms were recorded from these two locations simultaneously during the procedure. A branch (400˜500 μm in diameter) of the left femoral artery was exposed carefully. A flow probe (0.5 mm ID) connected to a flow meter (Transonic systems, Ithaca, N.Y.) was then placed around it and local flow rate was recorded for at least 30 minutes. Following the measurement of blood pressure, the small cuts for cannulation on the carotid and femoral arteries were repaired by 11-0 sutures to restore flow.
A laparotomy (about 3.0 cm) was performed. The distal abdominal aorta between renal and common iliac artery was carefully exposed and tissue glue (cyanoacrylate formulation, Dermabond, Ethicon, NJ) was coated over a length of the aorta. After allowing 5-10 minutes for the glue to harden, a stiff coating formed and covered the anterior and bilateral sides of the aorta with an axial length of 3.0-3.5 cm. The sham group underwent an identical surgical procedure, but without application of glue on the aorta (i.e., the same amount of glue was left near the aorta area with no direct contact with the aorta).
(§2) Rats in group 2 received continuous BQ-123 infusion (1 mg/kg/day) for 21 days through Osmotic minipump implantation after 12 weeks of aortic NCR. BQ-123 (Peptides International Inc., Louisville, Ky.) was dissolved in saline containing 0.5% dimethyl sulphoxide (DMSO). The Osmotic minipump (model 2002, Durect Corporation, CA) was subcutaneously implanted on the side of abdomen in rats. Sham rats received continuous saline infusion through Osmotic minipumps for 21 days.
Pulse wave velocity (PWV) calculation is based on the difference in arrival times of the pressure wave at the proximal (aorta arch) and distal (abdominal aorta) locations. Since the pressure transducer is visible on radiographs, the propagation distance between the proximal and distal site was obtained by imaging the animal with the two transducers implantation under an X-ray machine (Philips Fluoroscopy System, FIG. 1). PWV (m/s) was calculated by dividing the propagation distance by the difference among the two arrival times (transit time).
The reverse to forward flow ratio (indicative of the extent of peripheral flow reversal) in peripheral small artery was calculated as: R/F ratio=Qrev/Qfwd×100(%), where Qrev and Qfwd are the reverse and forward peak flow rate, respectively (as shown in FIG. 3A). […]

[2] = tested on: peripheral small arteries; assay: Elastin and collagen contents by multiphoton microscopy; format: in vivo, Wistar rats
Method: as §2
The elastin and collagen in small peripheral arteries were imaged by using a Multiphoton microscope (MPM) as described by Huan et al. Briefly, the arterial segment was fixed with 4% paraformaldehyde in phosphate buffer for 4 hours. The vessel was then transferred to a cryomold containing OCT embedding medium, and frozen in liquid nitrogen. Frozen transverse sections (7 μm) were cut onto glass slide and visualized by the MPM with a combined SHG/TPEF setup (Zeiss LSM 710 NLO). Serial optical sections were simultaneously captured by using the 520 nm line for elastin and the 415 nm line for collagen. All the images were taken under identical conditions of laser intensity, brightness, and contrast. Fluorescence intensity values were used as estimates of elastin and collagen concentration and quantitatively analyzed by Image J.

Body weight = format: in vivo, Wistar rats; conditions: Exp rats, 12 weeks aortic NCR then BQ-123 1 mg/kg/day continuous infusion 3 weeks; mean ± SEM
Method: as §1, §2

left ventricle = assay: Heart and left ventricle weights; format: in vivo, Wistar rats; conditions: compared to sham
Method: as §2
(§3) After measurement of pressure and flow from a branch of femoral artery, water-resistant carbon particles were used to mark the same vessel segment (400˜500 μm in diameter) to measure axial changes as described in a publication by Guo et al. The external geometry of the arterial segment was photographed to obtain the outer diameter and in vivo axial length with the aid of a dissecting microscope. The arterial segment was than harvested for endothelial function and mechanical testing and histological analysis. The heart was harvested to calculate the wet weight.

[3] = tested on: peripheral small arteries; assay: Mechanical tests and morphometry of peripheral small arteries; format: in vivo, Wistar rats
Method: as §2, §3
The peripheral arterial segment was cannulated on both ends and fully relaxed in Ca^2+ free HEPES-PSS. The arterial segment was preconditioned with five cyclic changes in pressure from 0 to 140 mmHg. The pressure was then increased in 20 mmHg step increments from 20 to 140 mmHg in a staircase manner. The passive pressure-diameter relation was recorded. After the mechanical testing, the vessel segment was cut transversely into three or four rings. Each ring was photographed in the no-load state and then cut radially by a scissor to reveal the zero-stress state. The cross section of each sector was photographed 30 minutes after the radial cut (details in Guo et al.). The morphological measurements of the in vitro axial length, inner and outer circumference, wall thickness (WT), and area in the no-load and zero-stress state were made from the images using a morphometric analysis system (SigmaScan).
The loaded inner radius of vessel was determined from the incompressibility assumption. The incompressibility condition for a cylindrical vessel can be expressed as:
where ro and ri are the outer and inner radii at the loaded state, respectively. λZ=l/lo is the stretch ratio in the axial direction where l and lo are the vessel length in the loaded and no-load state, respectively and Ao is the wall area in the no-load state. The wall thickness, WT at the loaded state was computed as the difference between the outer and inner radius of the vessel at various pressures as:
The volume compliance (CV) of the artery was determined by the slope of the pressure-volume relationship; i.e., CV=ΔV/ΔP. […] The normalized CSA compliance (CCSA) was determined similarly as CCSA=ΔCSA/(ΔP·CSA) at the physiological pressure as described in our previous publication.

[4] = tested on: peripheral small arteries; assay: Endothelial function of peripheral small arteries (isovolumic myograph, ex vivo) after in vivo treatment; design: species or system Wistar rats
Method: as §2, §3
An isovolumic myograph recently developed by our group was used to evaluate the endothelium-dependent vasorelaxation. The small peripheral arterial segment was cannulated on both ends in a physiological bath with HEPES physiologic saline solution (HEPES-PSS, concentration in mmol/l: 142 NaCl, 4.7 KCl, 2.7 sodium HEPES, 3 HEPES acid, 0.15 NaHPO4, 1.17 MgSO4, 2.79 CaCl^2, and 5.5 glucose, solution gassed by 95% O2 plus 5% CO2) and stretched to in situ length. The pressure and external diameter were measured with a pressure transducer (Mikro-Tip SPR-524; Millar Instruments) and a digital diameter tracking (DiamTrak v3+; Australia), respectively. The vessel segment was pre-constricted with phenylephrine (PE) by a series of doses (10^−10 to 10^−5 mol/L in the PSS), and then relaxed with acetylcholine (ACh) by a series of doses: 10^−10 to 10^−5 mol/L. The endothelium-independent relaxation to sodium nitroprusside (SNP, 10^−5 mol/L) was measured to verify the sensitivity of vascular smooth muscle to NO. The overall contractility of vessel was tested with potassium chloride (KCl) at 60 mmol/L. Contraction was expressed as percentage of the response to KCl. Relaxation was expressed as percentage of pre-contraction to PE.
Results were shown as mean±standard error of mean (mean±SEM). The significance of the differences between two groups was evaluated by either t-test or One-way ANOVA. For each dose-response curve to agents, the maximum effect (Emax) and bolus dose that produced half-maximal relaxation or contraction (expressed as pED50) were obtained by fitting the experimental data with a sigmoidal dose response curve. A least-squares fitting function, FindFit (Wolfram Mathematica software, Illinois, USA) was used. Significant differences among the three groups for dose-dependent curves (FIGS. 10B and 7A) were determined by Two-way ANOVA (SigmaStat, California, USA). The results were considered statistically significant when P<0.05 (2-tailed).

ET-1 = assay: Serum ET-1 level (ELISA); format: in vivo, Wistar rats; conditions: FIG. 6; not significantly different from the sham
Method: as §2
Blood samples were collected in ethylenediaminetetraacetic acid (EDTA) tubes for all experimental rats. After centrifugation at 5000 rpm and 4° C. for 15 min, serum was immediately separated and stored at −80° C. until analysis. The circulating level of ET-1 in serum was measured by ELISA kit (R&D system, MN).

[5] = Exp rats, 12 weeks aortic NCR then BQ-123 1 mg/kg/day infusion 3 weeks, mean ± SEM
[6] = branch of femoral artery, Exp rats, 12 weeks aortic NCR then BQ-123 infusion 3 weeks, mean ± SEM

## CC(C)C[C@@H]1NC(=O)[C@@H](C(C)C)NC(=O)[C@@H]2CCCN2C(=O)[C@@H](CC(=O)O)NC(=O)[C@@H](Cc2c[nH]c3ccccc23)NC1=O [BQ-123, 2-[(3R,6R,9S,12R,15S)-6-(1H-indol-3-ylmethyl)-9-(2-methylpropyl)-2,5,8,11,14-pentaoxo-12-propan-2-yl-1,4,7,10,13-pentazabicyclo[13.3.0]octadecan-3-yl]acetic acid] (cyclo(L[dW][dD]P[dV]))
[1]; [5]
  Central aortic blood pressure, Diastolic pressure: 94.8 ± 3.2 mmHg
  Central aortic blood pressure, Mean pressure: 115.0 ± 3.8 mmHg
  Central aortic blood pressure, Pulse pressure: 38.5 ± 1.8 mmHg
  Central aortic blood pressure, Systolic pressure: 133.3 ± 3.9 mmHg
  Heart rate: 353.0 ± 6.9 beats/min
  PWV: 4.1 ± 0.3 m/s
  Peripheral aortic blood pressure, Diastolic pressure: 87.6 ± 3.5 mmHg
  Peripheral aortic blood pressure, Mean pressure: 108.0 ± 4.5 mmHg
  Peripheral aortic blood pressure, Pulse pressure: 45.8 ± 2.1 mmHg
  Peripheral aortic blood pressure, Systolic pressure: 133.4 ± 5.1 mmHg
[1]; FIG. 3B, after 3 weeks BQ-123 in NCR rats
  wall shear stress (WSS) in peripheral small arteries: returned to the sham level
[1]; Qrev/Qfwd×100, Exp rats, 12 weeks aortic NCR then BQ-123 infusion 3 weeks, mean ± SEM
  Reverse/forward flow ratio: 7.6 ± 1.4 %
[1]; [6]
  Peripheral flow rate, Forward flow: 0.34 ± 0.04 mL/min
  Peripheral flow rate, Mean flow: 0.099 ± 0.008 mL/min
  Peripheral flow rate, Reverse flow: -0.026 ± 0.007 mL/min
[2]; FIG. 5B, after 3 weeks BQ-123
  total collagen content of peripheral arteries: returned to normal levels
[2]; FIG. 5C, after 3 weeks of treatment
  elastin to collagen ratio: restored to normal levels
[2]; between NCR, BQ-123 treatment and sham groups
  total elastin contents: No difference
Body weight
  Body Weight: 641.3 ± 18.9 g
Left ventricle
  wet weights of the hearts: did not change
Left ventricle; p<0.05, FIG. 2
  LV weight/heart weight ratio (LV/HW): significant increase
[3]; compared to NCR group, not statistically significant, FIG. 4A
  wall thickness (WT, intima-media thickness): downward trend
[3]; compared to NCR group, not statistically significant, FIG. 4B
  wall thickness-to-radius (WTTR) ratio: downward trend
[3]; compared with NCR group p=0.02, not fully restored vs sham (p=0.06), FIG. 4C
  normalized CSA compliance: significantly increased
[3]; sham, NCR and BQ-123 groups, FIG. 10A
  outer diameter of the peripheral small arteries: no changes
[4]; FIG. 7A, vs aortic NCR group, p<0.05, 2-way ANOVA
  endothelium-dependent vasodilation in response to acetylcholine (dose-response curve): totally recovered
[4]; FIG. 10B, vs sham and aortic NCR
  contractions to phenylephrine (PE): did not affect this response
[4]; KCl 60 mmol/L, among the 3 groups, FIG. 10C
  vascular contraction to potassium chloride (KCl): no significant difference
[4]; SNP 10^−5 mol/L, arteries of BQ-123 treated NCR rats (sham 96%, NCR 74%)
  maximal endothelium-independent relaxation to sodium nitroprusside (SNP): 98%
[4]; acetylcholine concentration-response curve, PE pre-contracted peripheral small arteries of BQ-123 treated NCR rats, mean ± SEM
  Emax: 88.5 ± 7.9%
[4]; phenylephrine concentration-response curve, peripheral small arteries of BQ-123 treated NCR rats, mean ± SEM
  Phenylephrine Emax (%): 72.4 ± 6.3 negative log mol/L
ET-1
  serum ET-1 level: restored to pre-intervention level

From patent US20190008919A1, “ETA RECEPTOR ANTAGONISTS AND METHODS OF USING THE SAME TO TREAT CARDIOVASCULAR DISORDERS AND DISEASE” (priority 2017, published 2019)
